Measured values as given in US11607404B2, “Combinations of RAD51 and PARP inhibitors” (Cyteir Therapeutics, Inc., priority 2019, dated 2023).
pEC50: −log10 of the molar value. Like-named read-outs stand apart in the source and are kept apart here.

Tests used:
[1] = tested on: Daudi cell line (AID positive); assay: Primary screening cell killing assay (Cell-Titer Glo, Day 7); format: cell-based; conditions: Homo sapiens
Procedure: (§1) Primary screening was a phenotypic screen that utilized the synthetic lethal interaction between AID and RAD51 to identify compounds that were both potent and on target. AID expressing cells are dependent upon RAD51 for survival; inhibiting RAD51 in AID positive cells results in a cytotoxic effect.
(§2) The first step was to set up a cell killing assay in the Daudi cell line (AID positive). A 96 well u-bottom plate was prepared by writing the experiment number, plate number, date and initials in the top right corner of the plate lid. With a sterile 300 ml reservoir, and 25 ml serological pipette, evaporation buffer media was pipetted into reservoir in 25 ml increments. Using the liquid handler, 150 ul of evaporation buffer media was pipetted from reservoir into rows A and H, and Columns 1 and 12 of the 96 well u-bottom plate. Cell cultures were counted to obtain the density of cells per ml, and the culture viability. The cell density information was used to obtain 1,000,000 cells from culture using a 5 mL serological pipette into an epi tube. The cell density information from the culture was used to calculate the number of cells and volume of media needed for the assay to seed 1250 cells in 130 ul of media per available culture well in the 96 well u-bottom plate. Rows B through F were used for cells (50 wells in total), with row G left for an empty media control. The calculation was overestimated by 10 mL to account for the dead volume in the 300 ml reservoir. Once the media volume was calculated, the appropriate volume of media was pipetted in 25 mL increments into the 250 mL bottle using a 25 mL serological pipette. The 250 ml bottle was capped tightly, and placed into a 37° C. water bath for 2 minutes. While the culture media was warming, 10 mL of fresh media was pipetted from the 500 mL culture media bottle into a sterile 25 mL reservoir. Using the Eppendorf multichannel pipette, 130 ul of media was piptted from the 25 mL reservoir into row G of the 96 well u-bottom plate. Once the 250 mL bottle of media was warmed, the volume of culture needed was pipetted into the bottle, and mixed gently with a 25 mL serological pipette as to not create bubbles, and then the contents of the bottle were pipetted into a new 300 mL reservoir. Using the liquid handler, 130 ul of culture was pipetted from the 300 mL reservoir into rows B through F of the 96 well u-bottom plate. Once the culture was added, the plate was placed into a 37° C. incubator until the compound master plate was prepared for use.
(§3) Two 96 well u-bottom plates were prepared by writing the master plate name in the upper right corner of the plate lid. Labeling one DMSO master and the other Media Master. The compounds of interest were obtained from the laboratory freezer, and placed into a 25 well storage box with a lid, and set the box aside. The compounds were vortexed after thawing but before use. Using an automatic multichannel pipette, 20 ul of 100% DMSO was pipetted into wells B3-B11 through G3-G11 of the DMSO master plate. For each compound on the master plate, 50 ul of the compound were pipetted in the appropriate well of row 2 (reference plate map to determine appropriate well). A serial dilution was prepared beginning by aspirating 20 ul from row 2 and mixing with row 3, repeating until row 11 was reached. Using the liquid handler, 194 ul of Daudi media was dispensed into wells B2-B11 through G2-G11 of the Media master plate. Using the liquid handler, 6 ul from the DMSO master plate was aspirated and dispensed into the media master plate, mixing 100 ul twice.
Compounds from master plate were then added to the culture plate. The culture plates were removed from the incubator, and set inside the biosafety cabinet. Using a liquid handler, 20 ul from wells B2 to B11 through G2 to G11 of master plate were aspirated, and dispensed into wells B2 to B11 through G2 to G11 of culture plate. This set was continued with each culture plate. […]

[2] = tested on: WI-38 cells (AID negative); assay: Primary screening cell killing assay repeated in AID negative cells; format: cell-based, Human
Procedure: as §1
Percent cell death and EC50 values were calculated by comparing the cell viability of the compound treated wells to the non-treated wells. Normalized RLU values were obtained by subtracting the media well values from each of the wells in the same column, and then dividing that value by the DMSO treated cells values. The percent kill was then calculated by subtracting the normalized RLU value from 1 and multiplying by 100. The average normalized percent kill value and standard error of the mean was then calculated. The kill values were then inputted into Prism with the corresponding standard errors. In Prism a non-linear regression line was plotted with the data points using a semi-log scale, and the EC50 value was calculated.
The activity of the claimed compounds was measured in a variety of cell lines with different expression levels of activation induced cytidine deaminase (AICDA). The potency assay was repeated in all of the listed cell lines and the EC50 values recorded.

[3] = Bi-directional Caco-2 permeability; format: in vitro ADME; conditions: human
Procedure: Bi-directional Caco-2 permeability was assayed. Caco-2 cells were seeded onto permeable polycarbonate supports and allowed to differentiate for about 3 weeks prior to being used in the assays. The cells were then exposed to the compounds from either the apical or basolateral sides and incubated at 37 C for up to 90 minutes under light agitation. Compound transport was then measured using LC/MS/MS analysis at 30, 60, and 90 minutes.

[4] = Human liver microsome stability; format: in vitro ADME; conditions: for Human Liver Microsome Stability Half Life: 37° C., 45 minutes incubation; for Human Liver Microsome Stability % QH: percentage of hepatic blood flow
Procedure: The stability of the claimed compounds was determined in the presences of human liver microsomes. The compounds were incubated with the microsomes at 37° C. for 45 minutes. Samples were analyzed using LC-MS/MS. Data analysis included half-life, clearance rate, and the percentage of hepatic blood flow (% QH) for each of the compounds in the different species.

[5] = tested on: ARPE19/HPV16 (HPV Immortalized RPE); assay: Cell line screen (potency assay); format: cell-based; conditions: ARPE-19, AICDA expression Negative
Procedure: as §2, §3
(§4) Compounds from master plate were then added to the culture plate. The culture plates were removed from the incubator, and set inside the biosafety cabinet. Using a liquid handler, 20 ul from wells B2 to B11 through G2 to G11 of master plate were aspirated, and dispensed into wells B2 to B11 through G2 to G11 of culture plate. This set was continued with each culture plate. Once the culture plates acquired their 20 ul of compound dilutions, they were placed back into the incubator, until their reads on Day 7 of experiment. Cell death was measured on Day 7 of the experiment using Cell-Titer Glo and a Promega Plate reader. […]

CCRF-SB (Leukemia) = assay: Cell line screen (potency assay); format: cell-based; conditions: Homo sapiens, AICDA expression High
Procedure: as §2, §3, §4

KG-1 (Leukemia) = assay: Cell line screen (potency assay); format: cell-based; conditions: AICDA expression Negative
Procedure: as §2, §3, §4

KYSE-510 (Head and Neck) = assay: Cell line screen (potency assay); format: cell-based; conditions: Homo sapiens, AICDA expression Negative
Procedure: as §2, §3, §4

KYSE-70 (Head and Neck) = assay: Cell line screen (potency assay); format: cell-based; conditions: Homo sapiens, AICDA expression Low
Procedure: as §2, §3, §4

OV56 (Ovary) = assay: Cell line screen (potency assay); format: cell-based; conditions: AICDA expression Low
Procedure: as §2, §3, §4

TOV-1120D (Ovary) = assay: Cell line screen (potency assay); format: cell-based; conditions: AICDA expression Negative
Procedure: as §2, §3, §4

U-698-M (Lymphoma) = assay: Cell line screen (potency assay); format: cell-based; conditions: AICDA expression High
Procedure: as §2, §3, §4

WSU-FSCCL (Lymphoma) = assay: Cell line screen (potency assay); format: cell-based; conditions: AICDA expression Negative
Procedure: as §2, §3, §4

[6] = Pharmacokinetic (PK) study; format: in vivo, Rat; conditions: po @ 80 mg/kg (30% PEG400, 10% Vitamin E TPGS in water)
Procedure: PK studies in mice were used to determine the fate of the compounds in a whole organism. Rats were treated with the compounds either orally of via IV at the indicated doses and followed for up to 24 hours. Plasma samples were taken at different time points and analyzed by LC-MS.

[7] = 168 h, Daudi cells (AID positive), cell death on Day 7, read-out: AID+ EC50
[8] = Daudi (Lymphoma), AICDA expression High, read-out: EC50
[9] = Homo sapiens, WI-38 cells (AID negative), read-out: AID− EC50
[10] = WI-38 (Normal Human Lung Fibroblast), AICDA expression Negative, read-out: EC50
[11] = Caco-2, apical to basolateral, read-out: AB Recovery %
[12] = Caco-2, basolateral to apical, read-out: BA Recovery %

Structure (SMILES) | pEC50 [1, 7] | pEC50 [1, 8] | pEC50 [2, 9] | pEC50 [2, 10] | recovery at 90 min [3, 11] | recovery at 90 min [3, 12] | Human Liver Microsome Stability Half Life [4] | Human Liver Microsome Stability % QH [4] | pEC50 [5] | pEC50 (CCRF-SB (Leukemia)) | pEC50 (KG-1 (Leukemia)) | pEC50 (KYSE-510 (Head and Neck)) | pEC50 (KYSE-70 (Head and Neck)) | pEC50 (U-698-M (Lymphoma)) | pEC50 (WSU-FSCCL (Lymphoma)) | F (%) @ 5 mg/kg ([6]; Rat Female) | T1/2 ([6]; Rat Female) | F (%) @ 5 mg/kg ([6]; Rat Male) | T1/2 ([6]; Rat Male) | other results
CC(C)OC(=O)N[C@H]1CC[C@H](c2ncc(-c3ccc(NC(=O)NCc4ccccn4)cc3S(=O)(=O)NC(C)(C)C)s2)CC1 [Compound 29] | ≥ 7.00 | 7.37 | < 6.00 | < 5.00 | 93.9% | 90.9% | 0.342 h | 78.8% | < 5.00 | 5.89 | < 5.00 | < 5.00 | 5.33 | 6.95 | 7.17 | 8.39% | 4.66 h | 3.69% | 3.97 h | pEC50 (OV56 (Ovary)): 5.04; pEC50 (TOV-1120D (Ovary)): 5.04
CC(C)(C)NS(=O)(=O)c1cc(NC(=O)OC2COC2)ccc1-c1cnc(C2CCC(NC(=O)OC3COC3)CC2)s1 (stereo not shown) [Compound 49] | ≥ 6.00 | – | < 6.00 | – | – | – | – | – | – | – | – | – | – | – | – | – | – | – | – | –
CC(C)OC(=O)N[C@H]1CC[C@H](c2ncc(-c3ccc(NC(=O)NCc4ccccc4)cc3S(=O)(=O)NC(C)(C)C)s2)CC1 [Compound 66A] | – | – | – | – | – | – | – | 49.6% | < 5.00 | – | – | – | – | – | – | 3.31% | – | 2.55% | – | –
CC(C)OC(=O)N[C@H]1CC[C@H](c2ncc(-c3ccc(NC(=O)NCc4ncccc4F)cc3S(=O)(=O)NC(C)(C)C)s2)CC1 [Compound 31] | ≥ 7.00 | 7.70 | < 6.00 | < 5.00 | 70.5% | 92.3% | 0.373 h | 77.3% | < 5.00 | 5.66 | 5.06 | < 5.00 | 5.33 | 7.51 | > 7.40 | 2.77% | 4.75 h | 1.49% | 3.79 h | –
CC(C)OC(=O)NC1CCC(c2ncc(-c3ccc(NC(=O)N[C@@H](C)c4ccccn4)cc3S(=O)(=O)NC(C)(C)C)s2)CC1 (stereo partly shown) [Compound 32] | ≥ 7.00 | – | < 6.00 | – | – | – | – | – | – | – | – | – | – | – | – | – | – | – | – | –
CC(C)OC(=O)NC1CCC(c2ncc(-c3ccc(NC(=O)NCc4cccc(F)c4)cc3S(=O)(=O)NC(C)(C)C)s2)CC1 (stereo not shown) [Compound 27] | ≥ 7.00 | – | < 6.00 | – | 92% | 107% | – | – | – | – | – | – | – | – | – | – | – | – | – | –
